Results from PMC9116130 (Biochemical pharmacology, 2020).
Like-named read-outs stand apart in the source and are kept apart here. Where a SMILES comes first, the peptide text is derived from it. Bridges are numbered along the chain shown (N, C = ends).

Tests used:
hNaV1.1 = hNaV1.1 (Homo sapiens, UniProt P35498); assay: Two-electrode voltage-clamp on Xenopus laevis oocytes expressing NaV1.1
rNaV1.2 = rNaV1.2 (Rattus norvegicus, UniProt P04775); assay: Two-electrode voltage-clamp on Xenopus laevis oocytes expressing NaV1.2; details: for inhibition at 100 µM: read-out: Maximum % inhibition NaV1.2, peptide at 100 μM
rNaV1.3 = rNaV1.3 (Rattus norvegicus, UniProt P08104); assay: Two-electrode voltage-clamp on Xenopus laevis oocytes expressing NaV1.3
rNaV1.3, sequence (P08104 whole entry): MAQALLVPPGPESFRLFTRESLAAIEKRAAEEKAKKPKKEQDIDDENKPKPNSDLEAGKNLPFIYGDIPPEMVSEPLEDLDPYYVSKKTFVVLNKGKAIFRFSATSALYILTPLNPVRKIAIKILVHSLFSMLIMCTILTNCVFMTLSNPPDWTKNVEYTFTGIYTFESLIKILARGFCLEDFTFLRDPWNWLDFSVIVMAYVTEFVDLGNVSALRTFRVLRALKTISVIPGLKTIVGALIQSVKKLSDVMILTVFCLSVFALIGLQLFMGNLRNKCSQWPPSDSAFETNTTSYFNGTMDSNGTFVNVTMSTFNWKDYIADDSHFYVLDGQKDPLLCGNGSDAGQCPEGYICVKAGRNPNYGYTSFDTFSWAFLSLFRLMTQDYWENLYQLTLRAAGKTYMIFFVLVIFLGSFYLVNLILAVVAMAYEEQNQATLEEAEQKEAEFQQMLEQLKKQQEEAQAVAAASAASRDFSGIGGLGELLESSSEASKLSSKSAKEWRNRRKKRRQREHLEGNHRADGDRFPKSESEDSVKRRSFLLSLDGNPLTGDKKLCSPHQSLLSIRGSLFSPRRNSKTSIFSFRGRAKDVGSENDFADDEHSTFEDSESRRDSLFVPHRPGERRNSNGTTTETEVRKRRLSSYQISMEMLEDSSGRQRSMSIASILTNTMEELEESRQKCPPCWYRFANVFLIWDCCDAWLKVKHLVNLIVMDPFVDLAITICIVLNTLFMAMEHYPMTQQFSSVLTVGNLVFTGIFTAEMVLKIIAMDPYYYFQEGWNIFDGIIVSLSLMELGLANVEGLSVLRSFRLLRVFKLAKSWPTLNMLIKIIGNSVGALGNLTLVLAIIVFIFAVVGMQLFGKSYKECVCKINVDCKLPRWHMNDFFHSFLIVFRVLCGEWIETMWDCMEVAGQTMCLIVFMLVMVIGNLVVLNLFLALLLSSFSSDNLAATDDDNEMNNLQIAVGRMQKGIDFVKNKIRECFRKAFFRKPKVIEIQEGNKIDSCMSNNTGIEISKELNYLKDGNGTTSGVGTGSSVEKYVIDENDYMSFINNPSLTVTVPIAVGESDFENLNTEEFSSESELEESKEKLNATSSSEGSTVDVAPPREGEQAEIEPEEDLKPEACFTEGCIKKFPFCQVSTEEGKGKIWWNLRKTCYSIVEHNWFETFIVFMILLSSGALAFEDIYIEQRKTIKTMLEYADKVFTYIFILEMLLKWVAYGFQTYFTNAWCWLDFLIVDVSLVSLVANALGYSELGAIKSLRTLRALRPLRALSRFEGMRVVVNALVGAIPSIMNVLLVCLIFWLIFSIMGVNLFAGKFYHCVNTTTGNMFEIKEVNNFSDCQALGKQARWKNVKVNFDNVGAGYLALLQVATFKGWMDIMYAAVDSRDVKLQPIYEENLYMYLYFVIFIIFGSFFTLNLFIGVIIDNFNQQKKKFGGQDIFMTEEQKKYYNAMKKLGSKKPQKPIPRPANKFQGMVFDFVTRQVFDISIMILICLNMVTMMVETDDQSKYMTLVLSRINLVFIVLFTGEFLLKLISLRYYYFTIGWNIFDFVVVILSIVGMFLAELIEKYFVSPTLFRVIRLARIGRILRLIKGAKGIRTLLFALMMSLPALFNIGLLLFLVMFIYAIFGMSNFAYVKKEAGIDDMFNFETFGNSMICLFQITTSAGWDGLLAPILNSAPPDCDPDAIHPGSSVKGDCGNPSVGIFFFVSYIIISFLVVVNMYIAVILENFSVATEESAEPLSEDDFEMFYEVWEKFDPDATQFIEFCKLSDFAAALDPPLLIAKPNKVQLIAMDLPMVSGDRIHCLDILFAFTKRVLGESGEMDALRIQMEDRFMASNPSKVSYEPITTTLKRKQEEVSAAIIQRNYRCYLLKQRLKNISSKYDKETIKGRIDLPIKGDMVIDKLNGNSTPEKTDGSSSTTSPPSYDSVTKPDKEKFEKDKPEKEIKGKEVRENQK
rNaV1.3, sequence (Q00954 19-218 partner): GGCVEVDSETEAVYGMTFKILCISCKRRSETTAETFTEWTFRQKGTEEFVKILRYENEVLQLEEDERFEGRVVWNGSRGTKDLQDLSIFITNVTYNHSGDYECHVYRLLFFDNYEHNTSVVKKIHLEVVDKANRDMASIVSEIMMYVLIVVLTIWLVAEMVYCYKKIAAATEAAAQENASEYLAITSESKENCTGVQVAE

rNaV1.4 = rNaV1.4 (Rattus norvegicus, UniProt P15390); assay: Two-electrode voltage-clamp on Xenopus laevis oocytes expressing NaV1.4; details: for inhibition at 100 µM: read-out: Maximum % inhibition NaV1.4, peptide at 100 μM
hNaV1.5 = hNaV1.5 (Homo sapiens, UniProt Q14524); assay: Two-electrode voltage-clamp on Xenopus laevis oocytes expressing NaV1.5; details: for inhibition at 100 µM: read-out: Maximum % inhibition NaV1.5
mNaV1.6 = mNaV1.6 (Mus musculus, UniProt Q9WTU3); assay: Two-electrode voltage-clamp on Xenopus laevis oocytes expressing NaV1.6; details: for inhibition at 100 µM: read-out: Maximum % inhibition NaV1.6, peptide at 100 μM
mNaV1.6, sequence (Q9WTU3 whole entry): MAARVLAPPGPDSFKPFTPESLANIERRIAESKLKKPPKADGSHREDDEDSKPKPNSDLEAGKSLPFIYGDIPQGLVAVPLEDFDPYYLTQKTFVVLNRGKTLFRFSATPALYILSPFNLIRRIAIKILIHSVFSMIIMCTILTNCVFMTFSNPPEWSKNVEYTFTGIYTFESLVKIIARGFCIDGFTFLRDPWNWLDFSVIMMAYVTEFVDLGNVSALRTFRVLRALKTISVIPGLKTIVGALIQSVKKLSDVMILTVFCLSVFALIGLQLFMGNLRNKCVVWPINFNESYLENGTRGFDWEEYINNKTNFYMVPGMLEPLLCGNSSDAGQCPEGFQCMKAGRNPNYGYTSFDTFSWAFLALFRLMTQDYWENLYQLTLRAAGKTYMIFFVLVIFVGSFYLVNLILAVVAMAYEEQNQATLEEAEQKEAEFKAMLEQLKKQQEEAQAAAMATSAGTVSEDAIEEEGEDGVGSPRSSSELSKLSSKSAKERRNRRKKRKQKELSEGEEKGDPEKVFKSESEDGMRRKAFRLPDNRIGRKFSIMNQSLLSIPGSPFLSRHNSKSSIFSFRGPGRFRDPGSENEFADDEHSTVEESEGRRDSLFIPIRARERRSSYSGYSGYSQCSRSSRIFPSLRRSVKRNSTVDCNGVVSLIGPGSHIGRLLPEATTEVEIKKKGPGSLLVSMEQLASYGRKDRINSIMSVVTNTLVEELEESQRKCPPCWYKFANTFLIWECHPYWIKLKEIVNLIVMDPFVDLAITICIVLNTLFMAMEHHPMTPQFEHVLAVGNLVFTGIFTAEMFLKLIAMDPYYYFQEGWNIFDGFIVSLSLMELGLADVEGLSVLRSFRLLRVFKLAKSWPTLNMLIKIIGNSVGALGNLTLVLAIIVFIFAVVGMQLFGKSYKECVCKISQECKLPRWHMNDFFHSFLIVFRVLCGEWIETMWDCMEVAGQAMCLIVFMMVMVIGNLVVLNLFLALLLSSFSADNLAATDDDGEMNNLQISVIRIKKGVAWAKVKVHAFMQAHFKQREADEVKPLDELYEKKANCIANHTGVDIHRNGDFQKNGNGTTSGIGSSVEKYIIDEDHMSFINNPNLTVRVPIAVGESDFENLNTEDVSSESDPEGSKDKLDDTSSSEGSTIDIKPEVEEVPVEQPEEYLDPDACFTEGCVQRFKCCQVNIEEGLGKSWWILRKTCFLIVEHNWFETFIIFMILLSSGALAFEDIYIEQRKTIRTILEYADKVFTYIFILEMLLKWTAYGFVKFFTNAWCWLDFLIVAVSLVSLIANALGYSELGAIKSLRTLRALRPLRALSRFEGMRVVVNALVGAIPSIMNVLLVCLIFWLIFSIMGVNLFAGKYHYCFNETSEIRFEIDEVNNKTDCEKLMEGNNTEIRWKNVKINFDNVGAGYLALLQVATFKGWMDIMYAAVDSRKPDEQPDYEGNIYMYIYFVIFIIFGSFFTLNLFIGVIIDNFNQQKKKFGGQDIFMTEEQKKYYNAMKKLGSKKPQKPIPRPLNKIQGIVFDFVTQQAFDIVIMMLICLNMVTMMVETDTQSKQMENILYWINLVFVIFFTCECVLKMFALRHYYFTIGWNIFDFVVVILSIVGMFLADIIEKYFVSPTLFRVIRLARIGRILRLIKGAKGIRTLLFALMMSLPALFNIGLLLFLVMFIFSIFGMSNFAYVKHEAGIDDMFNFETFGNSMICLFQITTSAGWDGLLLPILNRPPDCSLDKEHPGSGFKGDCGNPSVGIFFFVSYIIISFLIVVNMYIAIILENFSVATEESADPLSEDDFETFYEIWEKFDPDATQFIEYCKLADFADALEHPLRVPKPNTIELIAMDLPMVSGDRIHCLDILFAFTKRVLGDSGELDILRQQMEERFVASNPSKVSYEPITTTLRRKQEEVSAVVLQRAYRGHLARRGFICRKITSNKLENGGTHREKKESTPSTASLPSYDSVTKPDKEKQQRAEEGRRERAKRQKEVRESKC

rNaV1.7 = rNaV1.7 (Rattus norvegicus, UniProt O08562); assay: Two-electrode voltage-clamp on Xenopus laevis oocytes expressing NaV1.7
rNaV1.8 = rNaV1.8 (Rattus norvegicus, UniProt Q62968); assay: Two-electrode voltage-clamp on Xenopus laevis oocytes expressing NaV1.8; details: for inhibition at 100 µM: read-out: Maximum % inhibition NaV1.8
[1] = test system: NaV1.2, NaV1.4, NaV1.5 and NaV1.6; details: 100 μM
inflammatory pain models = details: in vivo; cited from earlier work

C[C@@H]1NC(=O)[C@H](Cc2c[nH]c3ccccc23)NC(=O)[C@H](CCCNC(=N)N)NC(=O)[C@H](CCCNC(=N)N)NC(=O)[C@@H](N)CSSC[C@@H](C(N)=O)NC(=O)[C@H](CCCNC(=N)N)NC(=O)[C@H](CC(N)=O)NC(=O)[C@H](Cc2c[nH]c3ccccc23)NC(=O)[C@H](CCC(=O)O)NC1=O [PnCS1[R6E], CRRWAEWNRC ^*] (H-CRRWAEWNRC-NH2; disulfide 1-10)
IC50 (hNaV1.1): > 100 µM
IC50 (rNaV1.2): > 100 µM
inhibition at 100 µM (rNaV1.2): 49%
IC50 (rNaV1.3): > 100 µM
IC50 (rNaV1.4): > 100 µM
inhibition at 100 µM (rNaV1.4): 0%
IC50 (hNaV1.5): > 100 µM
inhibition at 100 µM (hNaV1.5): 19%
IC50 (mNaV1.6): > 100 µM
IC50 (mNaV1.6; read-out: IC50 NaV1.6 (Table 4), n > 5, ±SD): > 100 µM
inhibition at 100 µM (mNaV1.6): 41%
IC50 (rNaV1.7): > 100 µM
IC50 (rNaV1.8): > 100 µM
inhibition at 100 µM (rNaV1.8): 0%

C[C@@H]1NC(=O)[C@H](CCCCN)NC(=O)[C@H](CCCNC(=N)N)NC(=O)[C@H](CCCNC(=N)N)NC(=O)[C@@H](N)CSSC[C@@H](C(N)=O)NC(=O)[C@H](CCCNC(=N)N)NC(=O)[C@H](CC(N)=O)NC(=O)[C@H](Cc2c[nH]c3ccccc23)NC(=O)[C@H](CCCNC(=N)N)NC1=O [PnCS1[W4K], CRRKARWNRC ^*] (H-CRRKARWNRC-NH2; disulfide 1-10)
IC50 (hNaV1.1): 0.4 ± 0.2 µM
IC50 (rNaV1.2): 0.5 ± 0.4 µM
inhibition at 100 µM (rNaV1.2): 75%
IC50 (rNaV1.3): 1.3 ± 0.4 µM
IC50 (rNaV1.4): 0.7 ± 0.4 µM
inhibition at 100 µM (rNaV1.4): 94%
IC50 (hNaV1.5): 2.7 ± 0.5 µM
inhibition at 100 µM (hNaV1.5): 89%
IC50 (mNaV1.6): 0.7 ± 0.4 µM
inhibition at 100 µM (mNaV1.6): 92%
IC50 (rNaV1.7): 7.4 ± 0.5 µM
IC50 (rNaV1.8): > 100 µM
inhibition at 100 µM (rNaV1.8): 0%

C[C@@H]1NC(=O)[C@H](Cc2ccc(O)cc2)NC(=O)[C@H](CCCNC(=N)N)NC(=O)[C@H](CCCNC(=N)N)NC(=O)[C@@H](N)CSSC[C@@H](C(N)=O)NC(=O)[C@H](CCCNC(=N)N)NC(=O)[C@H](CC(N)=O)NC(=O)[C@H](Cc2c[nH]c3ccccc23)NC(=O)[C@H](CCCNC(=N)N)NC1=O [PnCS1[W4Y], CRRYARWNRC ^*] (H-CRRYARWNRC-NH2; disulfide 1-10)
IC50 (rNaV1.2): > 100 µM
inhibition at 100 µM (rNaV1.2): 39%
IC50 (rNaV1.4): > 100 µM
inhibition at 100 µM (rNaV1.4): 33%
IC50 (hNaV1.5): > 100 µM
inhibition at 100 µM (hNaV1.5): 43%
IC50 (mNaV1.6): > 100 µM
inhibition at 100 µM (mNaV1.6): 42%
IC50 (rNaV1.8): > 100 µM
inhibition at 100 µM (rNaV1.8): 0%
% inhibition, range across NaV1.2, NaV1.4, NaV1.5 and NaV1.6 [1]: 33–43%

C[C@@H]1NC(=O)[C@H](Cc2c[nH]c3ccccc23)NC(=O)[C@H](CCCNC(=N)N)NC(=O)[C@H](CCCNC(=N)N)NC(=O)[C@@H](N)CSSC[C@@H](C(N)=O)NC(=O)[C@H](CCCNC(=N)N)NC(=O)[C@H](CC(N)=O)NC(=O)[C@H](Cc2ccc(O)cc2)NC(=O)[C@H](CCCNC(=N)N)NC1=O [PnCS1[W7Y], CRRWARYNRC ^*] (H-CRRWARYNRC-NH2; disulfide 1-10)
IC50 (hNaV1.1): 2.2 ± 0.4 µM
IC50 (rNaV1.2): 7.4 ± 4.2 µM
inhibition at 100 µM (rNaV1.2): 76%
IC50 (rNaV1.3): 4.1 ± 0.8 µM
IC50 (rNaV1.4): 7.8 ± 3.3 µM
inhibition at 100 µM (rNaV1.4): 73%
IC50 (hNaV1.5): 11.7 ± 4.1 µM
inhibition at 100 µM (hNaV1.5): 75%
IC50 (mNaV1.6): 0.7 ± 0.3 µM
inhibition at 100 µM (mNaV1.6): 93%
IC50 (rNaV1.7): 8.2 ± 0.3 µM
IC50 (rNaV1.8): > 100 µM
inhibition at 100 µM (rNaV1.8): 0%
% inhibition, range across NaV1.2, NaV1.4, NaV1.5 and NaV1.6 [1]: 73–93%

μ-Conotoxin KIIIA [μ-KIIIA]
analgesic activity in inflammatory pain models (inflammatory pain models): analgesic in inflammatory pain models without motor impairment
